Test results published in paper PMC7291828 (Journal of medicinal chemistry, 2019).
Where a SMILES comes first, the peptide text is derived from it. Bridges are numbered along the chain shown (N, C = ends). Roman numbers before positions name the chains, in order. [ ]: non-standard residue; d: D form. 2Nal = N[C@@H](Cc1ccc2ccccc2c1)C(=O)O; Dap = NC[C@H](N)C(=O)O; AEEA = NCCOCCOCC(=O)O

Columns and labels:
SW480 cells = details: up to 50 μM
HeLa cells = experiment: Live-cell confocal microscopy of FAM-labeled peptides; assay type: cell-based; details: 5 μM FAM-labeled peptide, 2 h, 1% FBS
SJSA-1 cells = experiment: MTT viability assay, SJSA-1 cells; assay type: cell-based, human
[1] = cited from earlier work
[2] = test system: MCF7, HCT116 and HeLa cells; details: ≥20 μM, apparently off-target (membrane disruption)

For CC[C@H](C)[C@@H]1NC(=O)[C@@H](NC(=O)[C@H](CCC(=O)O)NC(=O)[C@@H]2CCCN2C(=O)[C@H](Cc2ccc(O)cc2)NC(=O)CNC(=O)CNC(C)=O)CC(=O)NCCCC[C@@H](C(=O)N[C@@H](Cc2cnc[nH]2)C(=O)N[C@@H](CC(C)C)C(=O)N[C@@H](CCC(N)=O)C(=O)N[C@@H](CCCNC(=N)N)C(=O)N[C@H](C(=O)N[C@H](C(=O)N[C@@H](CC(C)C)C(=O)NCCOCCOCC(=O)NCCOCCOCC(=O)N[C@@H](CNC(=O)CC[C@@H]2NC(=O)[C@@H](CCCNC(=N)N)NC(=O)[C@H](CCCNC(=N)N)NC(=O)[C@@H](CCCNC(=N)N)NC(=O)[C@H](CCCNC(=N)N)NC(=O)[C@H](Cc3ccc4ccccc4c3)NC(=O)[C@@H](Cc3ccccc3)NC2=O)C(N)=O)[C@@H](C)CC)C(C)C)NC(=O)[C@H](CC(=O)O)NC(=O)[C@H](CC(C)C)NC1=O [Peptide 9] (I: Ac-GGYPEDILDKHLQRVIL[AEEA][AEEA][Dap]-NH2 / II: cyclo([2Nal]R[dR]R[dR]E[dF]); lactam I:6-I:10; amide I:20-II:6), which “LDH release from SW480 cells” value (SW480 cells) is on record?
The value was “did not cause significant LDH release”.

For “Ac-EETFCHYWCQLTS-miniPEG-K(FAM) (bicyclic or more) [Peptide 25]”, which “intracellular fluorescence” value (HeLa cells) is on record?
The value was “brightly fluorescent”.

For “Ac-LTFDHYWKQLTS-miniPEG-K(Tat) (sidechain bridge or staple) [Peptide 6]”, which “effect on viability of SJSA-1 cells” value (SJSA-1 cells) is on record?
The value was “did not cause significant reduction”.

For “Ac-LTFCHYWCQLTS-miniPEG-K(FAM) (bicyclic or more) [Peptide 21]”, which “intracellular fluorescence” value (HeLa cells) is on record?
Its value is “brightly fluorescent”.

With nonaarginine [Peptide R9] as the compound, how does the “fold lower cytosolic delivery efficiency than cyclic CPP9” value [1] read?
The value was 15 fold.

Which “effect on cell viability at higher concentrations” value [2] does the source give for CC(=O)N[C@@H](CC(C)C)C(=O)N[C@H](C(=O)N[C@@H](Cc1ccccc1)C(=O)N[C@H]1CC(=O)NCCCC[C@@H](C(=O)N[C@@H](CCC(N)=O)C(=O)N[C@@H](CC(C)C)C(=O)N[C@H](C(=O)N[C@@H](CO)C(=O)NCCOCCOCC(=O)N[C@@H](CCCCNC(=O)CC[C@@H]2NC(=O)[C@@H](CCCNC(=N)N)NC(=O)[C@H](CCCNC(=N)N)NC(=O)[C@@H](CCCNC(=N)N)NC(=O)[C@H](CCCNC(=N)N)NC(=O)[C@H](Cc3ccc4ccccc4c3)NC(=O)[C@@H](Cc3ccccc3)NC2=O)C(N)=O)[C@@H](C)O)NC(=O)[C@H](Cc2c[nH]c3ccccc23)NC(=O)[C@H](Cc2ccc(O)cc2)NC(=O)[C@H](Cc2cnc[nH]2)NC1=O)[C@@H](C)O [Peptide 4] (I: Ac-LTFDHYWKQLTS[AEEA]K-NH2 / II: cyclo([2Nal]R[dR]R[dR]E[dF]); lactam I:4-I:8; amide I:14-II:6) here?
The value was “almost complete loss of cell viability”.

Which “intracellular fluorescence” value (HeLa cells) does the source give for “Ac-ETFCHYWCQLTS-miniPEG-K(FAM) (bicyclic or more) [Peptide 23]” here?
Its value is “brightly fluorescent”.

With “Ac-LTFDHYWKQLTS-miniPEG-K(R9) (sidechain bridge or staple) [Peptide 7]” as the compound, how does the “effect on viability of SJSA-1 cells” value (SJSA-1 cells) read?
The value was “did not cause significant reduction”.
